According to patent US4102918A, “Anionic phenylcarboxamide complement inhibitors” (American Cyanamid Company, priority 1977, dated 1978):
Structures can show the parent of a compound that is named as a salt.

What was measured:
Details in all cases: activity in wells, two-fold serial dilution assay; higher well number indicates higher activity
activated human C1 = target: T1, activated human C1 (Homo sapiens, UniProt P09871); assay: Test, Code 026 (C1 inhibitor); format: biochemical
T1 construct: fluid-phase C2 cleavage in presence of C4
T1 sequence (P09871 16-688): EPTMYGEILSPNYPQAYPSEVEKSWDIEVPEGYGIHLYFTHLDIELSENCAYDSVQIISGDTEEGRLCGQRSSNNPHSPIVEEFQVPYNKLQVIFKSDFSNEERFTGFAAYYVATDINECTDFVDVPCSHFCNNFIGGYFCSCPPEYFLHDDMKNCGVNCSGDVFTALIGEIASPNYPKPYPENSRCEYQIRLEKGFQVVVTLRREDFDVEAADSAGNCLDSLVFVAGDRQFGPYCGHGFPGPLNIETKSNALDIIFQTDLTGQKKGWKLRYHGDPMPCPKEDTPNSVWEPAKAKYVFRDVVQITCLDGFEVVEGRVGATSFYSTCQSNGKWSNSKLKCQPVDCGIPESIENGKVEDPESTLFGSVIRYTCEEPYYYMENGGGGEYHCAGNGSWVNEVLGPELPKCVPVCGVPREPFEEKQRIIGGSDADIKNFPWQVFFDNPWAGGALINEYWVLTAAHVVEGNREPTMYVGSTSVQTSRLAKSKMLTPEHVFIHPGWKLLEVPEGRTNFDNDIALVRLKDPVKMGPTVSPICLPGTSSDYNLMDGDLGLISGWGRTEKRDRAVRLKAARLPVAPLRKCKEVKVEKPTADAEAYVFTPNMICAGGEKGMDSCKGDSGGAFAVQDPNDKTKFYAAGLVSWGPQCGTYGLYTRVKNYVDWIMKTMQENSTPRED
T1 sequence (P00736 18-705 partner): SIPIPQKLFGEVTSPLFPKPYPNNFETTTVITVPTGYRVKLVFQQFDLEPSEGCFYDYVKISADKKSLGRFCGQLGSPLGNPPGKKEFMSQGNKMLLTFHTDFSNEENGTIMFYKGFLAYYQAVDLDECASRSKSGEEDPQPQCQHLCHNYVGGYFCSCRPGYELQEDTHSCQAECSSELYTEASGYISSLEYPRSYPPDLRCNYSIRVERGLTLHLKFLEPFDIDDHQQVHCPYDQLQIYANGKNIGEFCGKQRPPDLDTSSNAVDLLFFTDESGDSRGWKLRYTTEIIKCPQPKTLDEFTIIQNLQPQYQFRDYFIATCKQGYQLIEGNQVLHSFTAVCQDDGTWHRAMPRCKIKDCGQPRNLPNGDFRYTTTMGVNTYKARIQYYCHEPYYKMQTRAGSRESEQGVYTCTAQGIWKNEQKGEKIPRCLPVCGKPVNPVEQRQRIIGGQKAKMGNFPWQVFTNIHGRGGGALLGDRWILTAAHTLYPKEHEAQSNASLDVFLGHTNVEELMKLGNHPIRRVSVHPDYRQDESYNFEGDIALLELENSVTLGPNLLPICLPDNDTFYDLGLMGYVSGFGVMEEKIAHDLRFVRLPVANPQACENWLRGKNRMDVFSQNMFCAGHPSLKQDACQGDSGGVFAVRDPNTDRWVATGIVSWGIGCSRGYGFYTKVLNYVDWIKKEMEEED
T1 sequence (P02745 23-245 partner): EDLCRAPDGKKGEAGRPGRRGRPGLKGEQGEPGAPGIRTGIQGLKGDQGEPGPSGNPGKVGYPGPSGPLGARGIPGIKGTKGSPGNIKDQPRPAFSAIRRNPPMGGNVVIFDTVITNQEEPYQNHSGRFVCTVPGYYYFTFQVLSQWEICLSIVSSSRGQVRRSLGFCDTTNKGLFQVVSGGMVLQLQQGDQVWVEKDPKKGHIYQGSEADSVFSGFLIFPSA
T1 sequence (P02746 28-253 partner): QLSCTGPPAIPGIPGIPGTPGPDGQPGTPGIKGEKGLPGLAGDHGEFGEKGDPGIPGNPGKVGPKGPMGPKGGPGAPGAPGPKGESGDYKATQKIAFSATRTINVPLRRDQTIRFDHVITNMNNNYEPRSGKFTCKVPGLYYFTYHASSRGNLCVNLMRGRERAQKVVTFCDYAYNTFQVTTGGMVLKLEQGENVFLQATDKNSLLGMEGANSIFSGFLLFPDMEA
T1 sequence (P02747 29-245 partner): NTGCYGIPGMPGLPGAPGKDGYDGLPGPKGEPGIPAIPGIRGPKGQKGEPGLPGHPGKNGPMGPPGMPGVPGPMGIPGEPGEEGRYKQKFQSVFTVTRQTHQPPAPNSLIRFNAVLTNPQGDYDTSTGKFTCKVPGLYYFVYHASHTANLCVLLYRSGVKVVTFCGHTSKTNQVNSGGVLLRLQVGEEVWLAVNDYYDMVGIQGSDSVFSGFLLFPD
Excerpt: (§1) An active inhibitor protects C2 from C1 and C4; (ii) Test, Code 035 (C3-C9 inhibitor) -- This test determines the ability of the late components of human complement (C3-C9) to lyse EAC 142 in the presence of appropriate dilutions of the test compound. An active inhibitor protects EAC 142 from lysis by human C3-C9; (iii) Test, Code 036 (C-shunt inhibitor) -- In this test human erythrocytes rendered fragile are lysed in autologous serum via the shunt pathway activated by cobra venom factor in the presence of appropriate dilutions of the test compound. Inhibition of the shunt pathway results in failure of lysis; (iv) Forssman Vasculitis Test -- Here, the well known complement dependent lesion, Forssman vasculitis, is produced in guinea pigs by intradermal injection of rabbit anti-Forssman antiserum. The lesion is measured in terms of diameter, edema and hemorrhage and the extent to which a combined index of these is inhibited by prior intraperitoneal injection of the test compound at 200 mg/kg is then reported, unless otherwise stated; (v) Forssman Shock Test -- Lethal shock is produced in guinea pigs by an i.v. injection of anti-Forssman antiserum and the harmonic mean death time of treated guinea pigs is compared with that of simultaneous controls; (vi) Complement Level Reduction Test -- In this test, the above dosed guinea pigs, or others, are bled for serum and the complement level is determined in undiluted serum by the capillary tube method of U.S. Pat. No. 3,876,376 and compared to undosed control guinea pigs; and (vii) Cap 50 Test -- Here, appropriate amounts of the test compound are added to a pool of guinea pig serum in vitro, after which the undiluted serum capillary tube assay referred to above is run. The concentration of compound inhibiting 50% is reported.

[1] = system: late components of human complement (C3-C9); assay: Test, Code 035 (C3-C9 inhibitor), lysis of EAC 142; format: biochemical
Excerpt: as §1

shunt pathway = assay: Test, Code 036 (C-shunt inhibitor), lysis of fragile human erythrocytes in autologous serum, cobra venom factor activated; format: cell-based
Excerpt: as §1

| SMILES | Cl 026 Wells (activated human C1) | C-Late 035 Wells [1] | Shunt Inhibition 036 Wells (shunt pathway) |
| --- | --- | --- | --- |
| Nc1cc(C(=O)Nc2cc(C(=O)O)c(O)c(S(=O)(=O)O)c2)cc(C(=O)Nc2cc(C(=O)O)c(O)c(S(=O)(=O)O)c2)c1 [5,5'-[5-Amino-1,3-phenylenebis(carbonylimino)]bis[3-sulfosalicylic acid]disodium salt] | +2 Wells | N | N |
| O=C(Nc1cc(C(=O)O)c(O)c(S(=O)(=O)O)c1)c1cc(C(=O)Nc2cc(C(=O)O)c(O)c(S(=O)(=O)O)c2)cc([N+](=O)[O-])c1 [5,5'-[(5-Nitro-1,3-phenylene)bis(carbonylimino)]bis[3-sulfosalicylic acid]disodium salt] | +2 Wells | N | N |
| O=C(Nc1ccc(O)c(C(=O)O)c1)c1cc(C(=O)Nc2ccc(O)c(C(=O)O)c2)cc([N+](=O)[O-])c1 [5,5'-[5-Nitro-m-phenylenebis(carbonylimino)]disalicylic acid] | α | N | N |
